Patent US7485434B2, “Method for screening compounds for those that modulate transducers of regulated CREB activity” (The Salk Institute for Biological Studies, priority 2005, dated 2009)

What was measured:
CREB target gene NR4A2 = test: Quantitative PCR of CREB target gene NR4A2 in MIN6 insulinoma cells; assay type: cell-based
Method: FIG. 1B presents quantitative PCR (Q-PCR) analysis of the CREB target gene NR4A2 in MIN6 insulinoma cells exposed to glucose (20 mM) and/or exendin-4 (10 nM).
Cells were treated with cAMP agonist (Forskolin, 10 μM) and KCl (45 mM) or vehicle control. For glucose experiments, MIN6 cells were starved overnight in DME containing 2.75 mM glucose plus 16 mM mannitol and 10% FBS. The next day the medium was changed for the indicated times+inhibitor. Total RNA from treated MIN6 or HIT cells was extracted using an RNeasy mini-kit (Qiagen, Valencia, Calif.). 500 ng-1 μg of total RNA was used for generating cDNA with Superscript II enzyme (Invitrogen, Carlsbad, Calif.). cDNAs were analyzed by quantitative PCR using SYBR green PCR kit and an ABIPRISM 7700 Sequence detector (Perkin Elmer, Foster City, Calif.). All PCR data for CREB target NR4A2 (Conkright et al., 2003b) was normalized to ribosomal L32 or 36B4 expression in the corresponding sample.
Hamster insulinoma (HIT) cells were employed to test the relative effects of cAMP and calcium signals on CREB activity. Opening of voltage-sensitive L-type calcium channels in response to KC1 depolarization induced the CREB-dependent EVX-1 promoter (Conknight et al., 2003b) 5-fold in HIT cells, whereas addition of cAMP agonist stimulated the reporter 10-fold (see FIG. 1A). […]

TORC2 [1] = test: TORC2 localization, Ser171 phosphorylation and promoter recruitment in liver after IP injection; assay type: in vivo; conditions: mice
CREB = CREB Ser133 phosphorylation in liver after IP injection (histochemical and Western blot); assay type: in vivo; conditions: mice; intraperitoneal administration
TORC2 [2] = test: TORC2 phosphorylation in primary rat hepatocytes (Western blot); assay type: cell-based; conditions: primary rat hepatocytes
Source text: FIG. 18B illustrates the effect of CHX on levels of phospho (Ser171) TORC2 in primary rat hepatocytes treated with glucagon over a variety of time points, shown in hours. Western blot assay indicates the levels of TORC2, phospho (Ser171) TORC2 and CREB.
Specifically, FIG. 19A, top, presents a Western blot showing the effect of US and SIK1 RNAi adenoviruses on the levels of SIK1 protein in rat hepatocytes. FIG. 19A, bottom, presents a Western blot assay with nondiscriminating TORC2 antiserum, showing the effect of SIK1 RNAi adenovirus on TORC2 dephosphorylation (compare P-TORC2 and TORC2 bands) following exposure of primary rat hepatocytes to glucagon (Gluc). The arrow identifies phosphorylated TORC2.
Cells were exposed to AICAR and FSK for 30 minutes. Lower mobility bands (arrow) indicate phosphorylated TORC2 polypeptides.
Rat primary hepatocytes were prepared from 200-300g of Sprague-Dawley rats by collagenase perfusion method as described previously (see Koo et al., 2004). 1×10^6 cells were plated in 6 well plates with medium 199 (Invitrogen, Carlsbad, Calif.) supplemented by 10% FBS, 10 units/ml penicillin, 10 μg/ml streptomycin, and 10 nM dexamethasone for 3-6 hours. After attachment, cells were infected with adenoviruses for 16 hours. Subsequently, cells were maintained in medium 199 without FBS and dexamethasone for 24 hours (for cDNA expression adenoviruses) or 48 hours (for RNAi adenoviruses) and […] forskolin or 100 nM glucagon for 2 hours unless noted otherwise. For experiments with cycloheximide, 10 μg/ml cycloheximide was added 30 minutes prior to the addition of 100 nM glucagon.
Like other signaling pathways, cAMP stimulates gluconeogenic gene expression with burst-attenuation kinetics (see Sasaki et al., 1984). Following exposure of primary hepatocytes to Forskolin, PEPCK mRNA levels became maximal after 2 hours, returning to near baseline after 4 hours (see FIG. 18A). […] Consistent with this, CHX pre-treatment potentiated gluconeogenic gene expression in primary rat hepatocytes exposed to glucagon 2-3 fold (see FIG. 18C). […]

TORC2 [3] = test: Immunofluorescence of TORC localization in ATYB1 fibroblasts; assay type: cell-based, human; conditions: ATYB1 cells
Method: Specifically, FIG. 3A presents fluorescence microscopic analysis of Flag-tagged TORC2 in human ATYBI fibroblasts treated with forskolin (10 μM) or control vehicle for 30 minutes as indicated.
FIG. 3B illustrates the effect of exportin inhibitor leptomycin B (LMB) on nuclear targeting of TORC2 in transfected ATYB1 fibroblasts. DAPI staining is shown alongside to indicate nuclei.
FIG. 7C, top panels, illustrate the effect of SIK2 (or related family members) on TORC2 subcellular localization. Immunofluorescence microscopy is presented for ATYB1 cells transfected with Flagtagged TORC2 plus wild-type or PKA phosphorylation defective SIK2 (Ser587Ala) as indicated. DAP1 staining is shown below each panel. FIG. 7C, bottom panels, illustrate the effect of Ser171 Ala mutagenesis on cellular localization of TORC2. Treatment with forskolin is indicated.
FIG. 13, top panels, illustrates the cellular localization of endogenous TORC proteins in ATYBI cells using TORC specific antiserum. The effect of forskolin (10 μM, 30 minutes) and leptomycin B (LMB, 10 ng/ml, 2 hr) treatment is shown. DAP1 staining is shown below to visualize the nuclei. FIG. 13, bottom panel, illustrates the effect of LMB treatment on TORC1 localization in ATYBI cells transfected with flag-tagged TORC1 expression vector. TORC1 localization was followed using anti-flag antiserum. DAP1 staining is shown alongside. […]

[4] = system: gluconeogenic genes (PEPCK, PGC-1α, G6Pase); test: Q-PCR of gluconeogenic gene expression in primary rat hepatocytes; assay type: cell-based; conditions: primary rat hepatocytes exposed to glucagon; CHX pre-treatment
Method: Specifically, FIG. 17A illustrates the effect of TORC2 on induction of gluconeogenic genes (PEPCK, PGC-1α, G6Pase) by FSK (10 μM, 2 hr) in cultured primary rat hepatocytes infected with TORC2 or control GFP adenovinus as indicated.
FIGS. 18A-18H illustrate that the induction of the AMP kinase family member SIK1 by CREB during fasting attenuates the gluconeogenic program. Specifically, FIG. 18A illustrates the time course of PEPCK gene expression in primary rat hepatocytes following exposure to FSK. mRNA levels were determined by Q-PCR analysis.
FIG. 18C illustrates the effect of CHX pretreatment on induction of gluconeogenic genes (PEPCK, PGC-1α, G6Pase) by glucagon in primary rat hepatocytes. Relative mRNA levels are shown.
FIG. 19B summarizes the effect of SIK1 RNAi on gluconeogenic gene expression in primary rat hepatocytes, presenting Q-PCR analysis showing the relative induction of PEPCK, PGC-1α, and G6Pase mRNAs by glucagon in cells infected with control (US) or SIK1 RNAi expressing adenoviruses.
FIG. 20D summarizes the effect of AlCAR on expression of gluconeogenic genes (PEPCK, PGC-1α) in primary rat hepatocytes. Cells infected with mutant Ser171Ala TORC2 (171) adenovinus indicated. Treatment with AICAR and FSK is shown.
Rat primary hepatocytes were prepared from 200-300g of Sprague-Dawley rats by collagenase perfusion method as described previously (see Koo et al., 2004). […]

β cell = conditions: organ transplant recipients receiving chronic immunosuppressive therapy; cited from earlier work

## Exendin-4
CREB target gene NR4A2; co-stimulation glucose (20 mM) plus exendin-4 (10 nM)
  NR4A2 mRNA levels enhanced: 35 fold

## glucagon
TORC2 [1]; 10 minutes after IP administration
  recruitment of TORC2 to gluconeogenic genes (ChIP of liver tissue): promoted recruitment of TORC2 to gluconeogenic genes
TORC2 [1]; IP administration
  TORC2 phosphorylation at Ser171 in liver: dephosphorylated
  nuclear translocation of hepatic TORC2: induced translocation of TORC2 to liver nuclei
  time to translocation of TORC2 to liver nuclei: ≤ 10 min
CREB
  CREB Ser133 phosphorylation in liver: promote CREB Ser133 phosphorylation in liver
  time to CREB Ser133 phosphorylation in liver: ≤ 10 min
TORC2 [2]; 3 hours after stimulation
  TORC2 phosphorylation at Ser171: strongly induced

## O=C[C@H](O)[C@@H](O)[C@H](O)[C@H](O)CO [glucose]
CREB target gene NR4A2; high glucose (20 mM)
  induction of NR4A2 expression: 5 fold

## CCC(=C/[C@H](C)C/C=C/C(C)=C/[C@@H](C)C(=O)[C@@H](C)[C@H](O)[C@@H](C)C/C(C)=C/C(=O)O)/C=C/[C@@H]1OC(=O)C=C[C@@H]1C [leptomycin B]
TORC2 [3]
  time to nuclear accumulation of TORC: 30 to 60 min
TORC2 [3]; forskolin 10 μM or LMB 10 ng/ml
  nuclear accumulation of TORC: strongly enhanced nuclear accumulation

## C[C@@H]1C[C@@H]([C@H](O)CC2CC(=O)NC(=O)C2)C(=O)[C@@H](C)C1 [cycloheximide]
[4]
  potentiation of gluconeogenic gene expression: 2-3 fold
TORC2 [2]; CHX pre-treatment 10 μg/ml
  effect on TORC2 Ser171 phosphorylation by glucagon at 3 hours: blocked phosphorylation of TORC2 at Ser171

## C=CC[C@@H]1/C=C(\C)C[C@H](C)C[C@H](OC)[C@H]2O[C@@](O)(C(=O)C(=O)N3CCCC[C@H]3C(=O)O[C@H](/C(C)=C/[C@@H]3CC[C@@H](O)[C@H](OC)C3)[C@H](C)[C@@H](O)CC1=O)[C@H](C)C[C@@H]2OC [FK506]
β cell
  β cell failure and diabetes: cause β cell failure and diabetes with high frequency
